Measurements: patent US9068170B2, “Generation of pluripotent stem cells using recombinant proteins” (THE SCRIPPS RESEARCH INSTITUTE, priority 2008, dated 2015)
Entries after “also recorded” stand apart in the source; their conditions may differ.

Experiments:
reprogramming efficiency = settings: HDAC inhibitor; Huangfu et al. 2008a; cited from earlier work
[1] = system: mouse fibroblast cells treated with exogenous Oct4/Sox2/Klf4/Myc polypeptides; assay: Oct4-positive colonies from an intermediate iPSC clone after small molecule treatment (Example 3, FIG. 5); assay type: cell-based; settings: combined treatment 0.5 μM PD0325901, 3 μM CHIR99021, 0.5 μM A-83-01, counted 2 weeks after treatment
Procedure: FIG. 5. […] A comparison of the number of Oct4^+ iPS cell colonies generated from mouse fibroblast cells treated with exogenous Oct4/Sox2/Klf4/Myc polypeptides, and with or without 0.5 μM PD0325901, 3 μM CHIR99021, and 0.5 μM A-83-01. Y-axis represents percentage of Oct4′ colonies within total number of colonies.
We tested the TGFβ receptor inhibitor (A-83-01), MEK inhibitor (PD0325901) and GSK-3 inhibitor (CHIR99021), on mouse fibroblast cells that were treated with exogenous Oct4, Klf4, Sox2 and c-Myc polypeptides, for their effects on reprogramming kinetics and efficiency.
Mouse fibroblasts were grown in mESC growth medium [Knockout DMEM (Invitrogen) supplemented with 10% ES-FBS+10% KSR, 0.1 mM 2-ME, 1% Glutamax, 1% Non-essential amino acids, 1% EmbryoMax ESC Qualified Nucleosides (Millipore), and 10^3 units/ml LIF (ESGRO, Chemicon International)] supplemented with 8 μg/ml of Oct4/Sox2/Klf4/Myc (all four transcription factors are tagged with poly-Arg […]; SEQ ID NO:2) for 4-12 hours, followed by culturing the cells in the absence of the Oct4/Sox2/Klf4/Myc polypeptides for one day. This procedure was repeated 4 times. The cells were then cultured in mESC medium for another two weeks. iPSC clones were detected by colony morphology and expression of pluripotency markers. An intermediate iPSC clone, which expresses ALP but not Oct4 (Oct4), was dissociated with Trypsin-EDTA. The clone was then expanded by continuous culturing with regular mESC medium or medium supplemented with 0.5 μM PD0325901, 3 μM CHIR99021, 0.5 μM A-83-01. The number of Oct4-positive colonies were counted 2 weeks after small molecule treatment (FIG. 5).

Mouse fibroblasts = assay: Induction of pluripotency in mouse fibroblasts by intermittent incubation with poly-Arg transcription factor proteins (Example 1); assay type: cell-based; settings: added and/or combined during protein treatment of mouse fibroblasts
Procedure: Mouse fibroblasts were grown in mESC medium supplemented with 8 μg/ml of either Oct4/Sox2/Klf4 or Oct4/Sox2/Klf4/Myc (all proteins comprising poly-Arg as described above) for 6-8 hours, washed, and incubated for 2-3 days in mESC media without the above-listed transcription factors. This (4-12 hours with, 1-3 days without) was repeated a number (1, 2, 3, 4, or more) of times and then the cells were cultures in mESC for two weeks.

cellular reprogramming = assay: Enhancement of cellular reprogramming by nuclear receptor ligands; assay type: cell-based

SMILES | effect on reprogramming efficiency and kinetics / iPSC generation (Oct4-positive colonies) [1] | effect on efficiency and speed of development of pluripotent cells (Mouse fibroblasts) | other results
CCCC(CCC)C(=O)O [valproic acid] |  |  | effect on reprogramming efficiency (reprogramming efficiency): can significantly improve the reprogramming efficiency
Cc1cccc(-c2nn(C(=S)Nc3ccccc3)cc2-c2ccnc3ccccc23)n1 [A-83-01, 3-(6-Methyl-2-pyridinyl)-N-phenyl-4-(4-quinolinyl)-1H-pyrazole-1-carbothioamide] | increases reprogramming efficiency and accelerates reprogramming kinetics; also recorded: enhanced iPSC generation |  | 
NC(=O)c1ccc(-c2nc(-c3ccc4c(c3)OCO4)c(-c3ccccn3)[nH]2)cc1 [SB431542] |  | improved efficiency and speed of development of pluripotent cells | 
CC(C)C[C@H](NC(=O)OCC1c2ccccc2-c2ccccc21)C(=O)O [Fmoc-Leu] |  |  | effect on cellular reprogramming (cellular reprogramming; 5 μM): can enhance cellular reprogramming
Cc1c[nH]c(-c2cnc(NCCNc3ccc(C#N)cn3)nc2-c2ccc(Cl)cc2Cl)n1 [CHIR99021] | increases reprogramming efficiency and accelerates reprogramming kinetics; also recorded: enhanced iPSC generation | improved efficiency and speed of development of pluripotent cells | 
O=C(NOC[C@H](O)CO)c1ccc(F)c(F)c1Nc1ccc(I)cc1F [PD0325901] | increases reprogramming efficiency and accelerates reprogramming kinetics | improved efficiency and speed of development of pluripotent cells | effect on reprogramming efficiency and kinetics / iPSC generation (Oct4-positive colonies) ([1]; listed as PD0320501): enhanced iPSC generation
C=C(c1ccc(C(=O)O)cc1)c1cc2c(cc1C)C(C)(C)CCC2(C)C [Bexarotene] |  |  | effect on cellular reprogramming (cellular reprogramming; 3 μM): can enhance cellular reprogramming
